In paper PMC11952367 (bioRxiv, 2025):

How the values were obtained:
TWIK-2 = target: T1, TWIK-2 (Homo sapiens, UniProt Q9Y257); experiment: automated whole-cell patch clamp, HEK293 GnTI- cells; assay type: cell-based; conditions: inhibition; voltage step to +60 mV from holding -90 mV
T1 sequence (Q9Y257 1-313): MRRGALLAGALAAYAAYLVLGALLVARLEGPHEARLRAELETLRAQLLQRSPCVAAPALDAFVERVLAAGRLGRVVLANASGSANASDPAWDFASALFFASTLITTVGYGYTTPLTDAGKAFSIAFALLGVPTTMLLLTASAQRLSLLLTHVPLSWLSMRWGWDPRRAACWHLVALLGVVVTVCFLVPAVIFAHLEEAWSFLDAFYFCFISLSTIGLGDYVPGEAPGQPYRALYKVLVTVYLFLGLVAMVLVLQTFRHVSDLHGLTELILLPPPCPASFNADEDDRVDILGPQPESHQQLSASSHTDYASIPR

ΔC-TWIK-2 = target: T2, ΔC-TWIK-2 (Homo sapiens, UniProt Q9Y257); experiment: automated whole-cell patch clamp; assay type: cell-based
T2 sequence (Q9Y257 1-276): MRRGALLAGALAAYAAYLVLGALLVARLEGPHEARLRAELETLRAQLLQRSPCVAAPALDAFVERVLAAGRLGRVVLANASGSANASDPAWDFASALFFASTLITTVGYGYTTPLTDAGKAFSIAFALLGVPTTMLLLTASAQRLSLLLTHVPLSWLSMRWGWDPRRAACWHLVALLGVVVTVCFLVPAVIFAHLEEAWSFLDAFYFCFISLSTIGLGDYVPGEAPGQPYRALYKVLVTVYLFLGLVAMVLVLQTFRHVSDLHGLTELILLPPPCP

IC50 (TWIK-2): 1.5 µM
Structure (SMILES): COc1ccccc1C(=O)Nc1cccc(NC(=O)c2cccc(C)c2)c1 [ML365]
percentage inhibition at maximum drug concentration (ΔC-TWIK-2): in ΔC-TWIK-2, we see a significant reduction in percentage inhibition at maximum drug concentration
